From ChEMBL document CHEMBL1201862, “PubChem BioAssay data set” (2004)
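Dose response: 5 concentrations. Exposure: 48 h. Format: 96-well plates. Endpoint: linear interpolation; highest concentration if not reached. GI50 marks 50% less growth.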 The source made the active and inactive calls. Rule as the data show it: active = GI50 up to about 1.1 µM and inactive = higher.

Key:
Assay in all cases: NCI tumour cell line growth inhibition, 48 h
CAKI-1 = system: CAKI-1
DU-145 = system: DU-145
HCC 2998 = system: HCC 2998
HCT-116 = system: HCT-116
HL-60 = system: HL-60
HOP-92 = system: HOP-92
KM12 = system: KM12
M14 = system: M14
MDA-MB-231 = system: MDA-MB-231
NCI-H23 = system: NCI-H23
OVCAR-3 = system: OVCAR-3
OVCAR-8 = system: OVCAR-8
PC-3 = system: PC-3
RXF 393 = system: RXF 393
SF-295 = system: SF-295
SK-MEL-2 = system: SK-MEL-2
SK-MEL-5 = system: SK-MEL-5
SR = system: SR
SW-620 = system: SW-620
UACC-62 = system: UACC-62

Measured: GI50

CCOC(=O)c1sc2nc(SC)nc(Nc3ccc(OC)c(OC)c3)c2c1N
inactive: CAKI-1 89.9 µM | DU-145 20.2 µM | HCC 2998 60 µM | HCT-116 7.05 µM | HL-60 > 100 µM | HOP-92 9.89 µM | KM12 > 100 µM | M14 42.4 µM | MDA-MB-231 3.78 µM | NCI-H23 3.52 µM | OVCAR-3 9.35 µM | OVCAR-8 4.81 µM | PC-3 63.8 µM | RXF 393 3.33 µM | SF-295 6.9 µM | SK-MEL-2 19.7 µM | SK-MEL-5 3.61 µM | SR 20.9 µM | SW-620 7 µM | UACC-62 4.74 µM
